How the values were obtained:
CgtE (CJL-107) = assay: Substrate specificity of CgtE (CJL-107), acceptor and donor substrates; assay type: biochemical, Campylobacter jejuni LIO87; conditions: for Activity: enzyme CgtE (CJL-107)
From the text: A nucleic acid encoding a CgtE polypeptide, or a subsequence thereof, can be characterized by assaying for the expressed product. Assays based on the detection of the physical, chemical, or immunological properties of the expressed protein can be used. For example, one can identify a cloned CgtE nucleic acid B, by the ability of a protein encoded by the nucleic acid to catalyze the transfer of a galactose moiety from a donor substrate to an acceptor substrate. In one method, capillary electrophoresis is employed to detect the reaction products. This highly sensitive assay involves using either saccharide or disaccharide aminophenyl derivatives which are labeled with fluorescein as described in Wakarchuk et al. (1996) J. Biol. Chem. 271 (45): 28271-276. To assay for CgtE activity, Galα-Lac-FCHASE or GalNAc-α-FCHASE is used as a substrate. The reaction products of other glycosyltransferases can be detected using capillary electrophoresis, e.g., to assay for a Neisseria lgtC enzyme, either FCHASE-AP-Lac or FCHASE-AP-Gal can be used, whereas for the Neisseria lgtB enzyme an appropriate reagent is FCHASE-AP-GlcNAc (Wakarchuk, supra). To assay for α2,8-sialyltransferase, GM3-FCHASE is used as a substrate. See, e.g., U.S. Pat. No. 6,503,744, which is herein incorporated by reference. Other methods for detection of oligosaccharide reaction products include thin layer chromatography and GC/MS and are disclosed in U.S. Pat. No. 6,503,744, which is herein incorporated by reference.
CgtE used both Galα-Lac-FCHASE and GalNAc-α-FCHASE as acceptor substrate. CgtE enzymatic activity was higher when Galα-Lac-FCHASE was used as the acceptor substrate.

CgtE = assay: Characterization of CgtE enzymatic activity (pH, divalent cations, truncation); assay type: biochemical, Campylobacter jejuni LIO87; conditions: divalent cations necessary for activity
From the text: CgtE enzymatic activity was characterized further. CgtE activity was optimal from pH 7 to 7.5.

CgtE (CJL-107), sequence (as listed by the source): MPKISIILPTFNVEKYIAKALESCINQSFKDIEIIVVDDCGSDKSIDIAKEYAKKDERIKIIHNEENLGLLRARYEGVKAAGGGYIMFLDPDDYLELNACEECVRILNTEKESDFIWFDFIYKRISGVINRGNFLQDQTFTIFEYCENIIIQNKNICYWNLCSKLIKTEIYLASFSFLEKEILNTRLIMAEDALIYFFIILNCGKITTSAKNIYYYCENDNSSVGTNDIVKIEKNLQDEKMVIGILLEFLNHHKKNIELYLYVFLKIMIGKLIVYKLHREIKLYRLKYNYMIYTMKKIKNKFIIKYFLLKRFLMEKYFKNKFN

| Compound | CgtE enzymatic activity, comparison of acceptor substrates (CgtE (CJL-107); Galα-Lac-FCHASE versus GalNAc-α-FCHASE as acceptor) | Activity (CgtE (CJL-107); donor UDP-Gal) [mU/mL] | Activity (CgtE (CJL-107); donor UDP-GalNAc) [mU/mL] | CgtE activity with divalent cation relative to MgCl2 (CgtE) |
| --- | --- | --- | --- | --- |
| Galα-Lac-FCHASE | higher | 7.0 | 63.5 |  |
| [Cl][Mn][Cl] [MnCl2] |  |  |  | two-fold higher |
| GalNAc-α-FCHASE |  | 0.6 | 0.3 |  |

— patent US8278069B2, “Identification of a β-1,3-N-acetylgalactosaminyltransferase (CGTE) from Campylobacter jejuni LIO87” (National Research Council of Canada, priority 2005, dated 2012)
